Reference: paper PMC6543826 (Bioorganic chemistry, 2018)
Read-outs that look alike come from different tables or passages of the source.

How the values were obtained:
[1] = tested on: CCRF-CEM; test: cells; assay type: cell-based; settings: 10^−5 M, 48 h
[2] = tested on: HL-60 (TB); test: cells; assay type: cell-based; settings: HL-60(TB), 10^−5 M, 48 h
[3] = tested on: K-562; test: cells; assay type: cell-based; settings: K-562, 10^−5 M, 48 h
[4] = tested on: MOLT-4; test: cells; assay type: cell-based; settings: MOLT-4, 10^−5 M, 48 h
[5] = tested on: HOP-62; test: cells; assay type: cell-based; settings: HOP-62, 10^−5 M, 48 h
[6] = tested on: NCI-H23; test: cells; assay type: cell-based; settings: NCI-H23, 10^−5 M, 48 h
[7] = tested on: NCI-H322M; test: cells; assay type: cell-based; settings: 10^−5 M, 48 h
[8] = tested on: NCI-H460; test: cells; assay type: cell-based; settings: NCI-H460, 10^−5 M, 48 h
[9] = tested on: NCI-H522; test: cells; assay type: cell-based; settings: NCI-H522, 10^−5 M, 48 h
[10] = tested on: HCC-2998; test: cells; assay type: cell-based; settings: HCC-2998, 10^−5 M, 48 h
[11] = tested on: HCT-116; test: cells; assay type: cell-based; settings: HCT-116, 10^−5 M, 48 h
[12] = tested on: HCT-15; test: cells; assay type: cell-based; settings: HCT-15, 10^−5 M, 48 h
[13] = tested on: HT29; test: cells; assay type: cell-based; settings: HT29, 10^−5 M, 48 h
[14] = tested on: KM 12; test: cells; assay type: cell-based; settings: KM 12, 10^−5 M, 48 h
[15] = tested on: SW-620; test: cells; assay type: cell-based; settings: SW-620, 10^−5 M, 48 h
[16] = tested on: SF-268; test: cells; assay type: cell-based; settings: SF-268, 10^−5 M, 48 h
[17] = tested on: SNB-19; test: cells; assay type: cell-based; settings: SNB-19, 10^−5 M, 48 h
[18] = tested on: SNB-75; test: cells; assay type: cell-based; settings: SNB-75, 10^−5 M, 48 h
[19] = tested on: LOX IMVI; test: cells; assay type: cell-based; settings: 10^−5 M, 48 h
[20] = tested on: MALME-3M; test: cells; assay type: cell-based; settings: MALME-3M, 10^−5 M, 48 h
[21] = tested on: M14; test: cells; assay type: cell-based; settings: M14, 10^−5 M, 48 h
[22] = tested on: MDA-MB-435; test: cells; assay type: cell-based; settings: MDA-MB-435, 10^−5 M, 48 h
[23] = tested on: SK-MEL-5; test: cells; assay type: cell-based; settings: SK-MEL-5, 10^−5 M, 48 h
[24] = tested on: IGROV1; test: cells; assay type: cell-based; settings: IGROV1, 10^−5 M, 48 h
[25] = tested on: OVCAR-3; test: cells; assay type: cell-based; settings: OVCAR-3, 10^−5 M, 48 h
[26] = tested on: OVCAR-4; test: cells; assay type: cell-based; settings: OVCAR-4, 10^−5 M, 48 h
[27] = tested on: SK-OV-3; test: cells; assay type: cell-based; settings: SK-OV-3, 10^−5 M, 48 h
[28] = tested on: ACHN; test: cells; assay type: cell-based; settings: 10^−5 M, 48 h
[29] = tested on: RXF 393; test: cells; assay type: cell-based; settings: RXF 393, 10^−5 M, 48 h
[30] = tested on: SN12C; test: cells; assay type: cell-based; settings: 10^−5 M, 48 h
[31] = tested on: UO-31; test: cells; assay type: cell-based; settings: UO-31, 10^−5 M, 48 h
[32] = tested on: PC-3; test: cells; assay type: cell-based; settings: PC-3, 10^−5 M, 48 h
[33] = tested on: DU-145; test: cells; assay type: cell-based; settings: DU-145, 10^−5 M, 48 h
[34] = tested on: BT-549; test: cells; assay type: cell-based; settings: BT-549, 10^−5 M, 48 h
[35] = tested on: T-47D; test: cells; assay type: cell-based; settings: T-47D, 10^−5 M, 48 h
[36] = tested on: MDA-MB-468; test: cells; assay type: cell-based; settings: MDA-MB-468, 10^−5 M, 48 h
[37] = biological target: JNK2 (Homo sapiens, UniProt P45984); test: in vitro kinase assay, GST-c-Jun; assay type: biochemical
Chain of JNK2 (P45984 whole entry): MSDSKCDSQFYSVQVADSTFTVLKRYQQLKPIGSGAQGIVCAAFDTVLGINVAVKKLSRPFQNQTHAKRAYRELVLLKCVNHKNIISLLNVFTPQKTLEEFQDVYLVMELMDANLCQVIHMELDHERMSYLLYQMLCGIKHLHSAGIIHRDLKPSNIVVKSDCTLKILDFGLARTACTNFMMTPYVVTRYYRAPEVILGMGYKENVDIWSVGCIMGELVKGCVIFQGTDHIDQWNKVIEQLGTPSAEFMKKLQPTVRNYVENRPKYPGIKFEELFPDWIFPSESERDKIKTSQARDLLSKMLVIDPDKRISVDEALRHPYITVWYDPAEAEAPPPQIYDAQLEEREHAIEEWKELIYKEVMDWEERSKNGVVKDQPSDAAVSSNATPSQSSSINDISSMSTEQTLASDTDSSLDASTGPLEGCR

[38] = biological target: p38MAPKα (Homo sapiens, UniProt Q16539); test: in vitro kinase assay, GST-ATF2; assay type: biochemical
Chain of p38MAPKα (Q16539 whole entry): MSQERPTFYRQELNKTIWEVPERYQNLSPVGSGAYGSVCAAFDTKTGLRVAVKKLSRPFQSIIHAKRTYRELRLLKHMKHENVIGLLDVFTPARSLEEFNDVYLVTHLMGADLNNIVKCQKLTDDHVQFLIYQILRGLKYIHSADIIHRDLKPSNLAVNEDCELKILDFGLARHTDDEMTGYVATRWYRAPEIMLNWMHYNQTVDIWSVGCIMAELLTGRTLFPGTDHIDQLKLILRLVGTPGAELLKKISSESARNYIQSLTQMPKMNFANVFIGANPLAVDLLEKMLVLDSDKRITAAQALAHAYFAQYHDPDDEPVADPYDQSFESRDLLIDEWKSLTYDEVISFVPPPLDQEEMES

SMILES: Cn1c(=O)c2c(=O)c3c4c(oc3oc2c2ccccc21)C(=O)c1ccccc1C4=O [5a, 5-Methyl-5H-naphthalen[2″,3″:4′,5′]furo[3′,2′:4′,5,6]pyrano [3,2-c]quinoline-6,7,8,13-tetraone]
- Growth percent (G%) [1]: 92.93%
- Growth percent (G%) [2]: 104.29%
- Growth percent (G%) [3]: 89.61%
- Growth percent (G%) [4]: 87.37%
- Growth percent (G%) [5]: 80.81%
- Growth percent (G%) [6]: 86.15%
- Growth percent (G%) [7]: 91.04%
- Growth percent (G%) [8]: 108.09%
- Growth percent (G%) [9]: 78.37%
- Growth percent (G%) [10]: 103.64%
- Growth percent (G%) [11]: 99.77%
- Growth percent (G%) [12]: 94.13%
- Growth percent (G%) [13]: 96.96%
- Growth percent (G%) [14]: 95.63%
- Growth percent (G%) [15]: 103.1%
- Growth percent (G%) [16]: 101.09%
- Growth percent (G%) [17]: 110.38%
- Growth percent (G%) [18]: 101.36%
- Growth percent (G%) [19]: 95.89%
- Growth percent (G%) [20]: 113.29%
- Growth percent (G%) [21]: 98.25%
- Growth percent (G%) [22]: 105.3%
- Growth percent (G%) [23]: 97.56%
- Growth percent (G%) [24]: 65.92%
- Growth percent (G%) [25]: 98.93%
- Growth percent (G%) [26]: 97.38%
- Growth percent (G%) [27]: 95.03%
- Growth percent (G%) [28]: 85.7%
- Growth percent (G%) [29]: 87.68%
- Growth percent (G%) [30]: 125.68%
- Growth percent (G%) [31]: 137.02%
- Growth percent (G%) [32]: 79.23%
- Growth percent (G%) [33]: 81.38%
- Growth percent (G%) [34]: 104.21%
- Growth percent (G%) [35]: 83.56%
- Growth percent (G%) [36]: 64.82%
- ability to inhibit JNK2 (in words) [37]: did not show any ability to inhibit
- IC50 ([37]; read-out: JNK2 IC50, 2 μM GST-c-Jun (1–221)): > 200 µM
- ability to inhibit p38MAPKα (in words) [38]: did not show any ability to inhibit
- IC50 ([38]; read-out: p38MAPKα IC50, 10 μM GST-ATF2): > 200 µM

SMILES: O=C1c2ccccc2C(=O)c2c1oc1c2c(=O)[nH]c2ccccc21 [3a, Naphtho[2′,3′:4,5]furo[3,2-c]quinoline-6,7,12(5H)-trione]
- Growth percent (G%) [1]: 20.72%
- Growth percent (G%) [2]: 2.26%
- Growth percent (G%) [3]: 55.20%
- Growth percent (G%) [4]: 5.55%
- Growth percent (G%) [5]: 118.63%
- Growth percent (G%) [6]: 65.95%
- Growth percent (G%) [7]: 89.28%
- Growth percent (G%) [8]: 68.27%
- Growth percent (G%) [9]: 54.81%
- Growth percent (G%) [10]: 102.57%
- Growth percent (G%) [11]: 55.46%
- Growth percent (G%) [12]: 44.70%
- Growth percent (G%) [13]: 102.52%
- Growth percent (G%) [14]: 66.22%
- Growth percent (G%) [15]: 89.23%
- Growth percent (G%) [16]: 91.30%
- Growth percent (G%) [17]: 103.72%
- Growth percent (G%) [18]: 112.98%
- Growth percent (G%) [19]: 56.12%
- Growth percent (G%) [20]: 124.29%
- Growth percent (G%) [21]: 73.38%
- Growth percent (G%) [22]: 83.72%
- Growth percent (G%) [23]: 79.73%
- Growth percent (G%) [24]: 55.11%
- Growth percent (G%) [25]: −14.81%
- Growth percent (G%) [26]: −5.49%
- Growth percent (G%) [27]: 104.46%
- Growth percent (G%) [28]: 65.70%
- Growth percent (G%) [29]: 97.24%
- Growth percent (G%) [30]: 70.40%
- Growth percent (G%) [31]: 60.44%
- Growth percent (G%) [32]: 65.49%
- Growth percent (G%) [33]: 82.02%
- Growth percent (G%) [34]: 73.94%
- Growth percent (G%) [35]: 22.52%
- Growth percent (G%) [36]: −8.43%
- IC50 [37]: > 200 µM
- ability to inhibit JNK2 (in words) [37]: did not show any ability to inhibit
- ability to inhibit p38MAPKα (in words) [38]: did not show any ability to inhibit
- IC50 ([38]; p38MAPKα IC50, 10 μM GST-ATF2): > 200 µM

SMILES: O=C1C(Cl)=C(c2c(O)c3c(=O)n(-c4ccccc4)c4ccccc4c3oc2=O)C(=O)c2ccccc21 [compound 6, 3-(3-Chloro-1,4-dioxo-1,4-dihydronaphthalen-2-yl)-4-hydroxy-6-phenyl-2H-pyrano[3,2-c]quinoline-2,5(6H)-dione]
- Growth percent (G%) [1]: 17.76%
- Growth percent (G%) [2]: 7.05%
- Growth percent (G%) [3]: 26.84%
- Growth percent (G%) [4]: 16.13%
- Growth percent (G%) [5]: 36.07%
- Growth percent (G%) [6]: 38.22%
- Growth percent (G%) [7]: 63.53%
- Growth percent (G%) [8]: 33.57%
- Growth percent (G%) [9]: 19.42%
- Growth percent (G%) [10]: 42.85%
- Growth percent (G%) [11]: 41.72%
- Growth percent (G%) [12]: 66.56%
- Growth percent (G%) [13]: 84.18%
- Growth percent (G%) [14]: 18.86%
- Growth percent (G%) [15]: 18.61%
- Growth percent (G%) [16]: 34.32%
- Growth percent (G%) [17]: 27.87%
- Growth percent (G%) [18]: 31.77%
- Growth percent (G%) [19]: 42.99%
- Growth percent (G%) [20]: 42.00%
- Growth percent (G%) [21]: 44.74%
- Growth percent (G%) [22]: 87.80%
- Growth percent (G%) [23]: 17.66%
- Growth percent (G%) [24]: 71.85%
- Growth percent (G%) [25]: 2.15%
- Growth percent (G%) [26]: 18.80%
- Growth percent (G%) [27]: 67.28%
- Growth percent (G%) [28]: 28.55%
- Growth percent (G%) [29]: 69.20%
- Growth percent (G%) [30]: −14.11%
- Growth percent (G%) [31]: 64.18%
- Growth percent (G%) [32]: 49.16%
- Growth percent (G%) [33]: 34.21%
- Growth percent (G%) [34]: 12.26%
- Growth percent (G%) [35]: 4.47%
- Growth percent (G%) [36]: −27.29%
- IC50 [37]: 4.2 ± 0.9 µM
- ability to inhibit JNK2 (in words) [37]: little tendency to inhibit
- ability to inhibit p38MAPKα (in words) [38]: little tendency to inhibit
- IC50 ([38]; p38MAPKα IC50, 10 μM GST-ATF2): 3.1 ± 0.5 µM
